Results reported in patent publication US7700136B2, “Scutellaria barbata extract for the treatment of cancer” (priority 2005, dated 2010).

Test system: subcutaneous cancer xenografts
Format: in vivo, mice
Settings: oral; BZL101 0.5 ml gavage every third day; cyclophosphamide 25 mg/Kg/day in drinking water; FIG. 6
Method: As in Example 1, above, 10^5 cells were administered to each animal subcutaneously on Day 0. The animals were divided into four groups. The control group received only normal drinking water. The cyclophosphamide only group received 25 mg/Kg/day of cyclophosphamide in their drinking water.

`O=P1(N(CCCl)CCCl)NCCCO1` (stereo not shown) [cyclophosphamide] was tested, and the tumor growth inhibition was “inhibited tumor growth as compared to the control”.
